The values below come from patent US20220370453A1 (Storm Therapeutics Ltd, priority 2019, published 2022).

Usually IC50 stands for the concentration needed to halve the response being measured.

The target of experiment [1] is T1, BCDIN3D (Homo sapiens, UniProt Q7Z5W3).
T1 sequence (Q7Z5W3 1-292): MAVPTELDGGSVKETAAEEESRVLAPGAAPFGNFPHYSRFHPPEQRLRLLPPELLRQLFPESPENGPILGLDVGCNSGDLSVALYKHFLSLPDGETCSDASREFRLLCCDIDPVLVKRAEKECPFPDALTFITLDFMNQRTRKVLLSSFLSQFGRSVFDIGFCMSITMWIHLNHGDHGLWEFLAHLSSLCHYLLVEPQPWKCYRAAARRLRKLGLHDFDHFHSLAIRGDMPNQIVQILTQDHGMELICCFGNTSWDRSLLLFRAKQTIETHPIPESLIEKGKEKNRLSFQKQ
In words: BCDIN3D IC50 RFMS (RapidFire) assay with mini-helix. In kind it is biochemical. As to conditions: mini-helix substrate 0.2 μM, SAM 6 μM, 25 nM enzyme. The essentials:
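SAH formation was measured by RapidFire mass spectrometry with D4- and 13C10-SAH internal standards after TCA quench. Substrates 6 μM SAM and 0.2 μM mini-helix reacted 1 h at 37 °C with 25 nM enzyme, which had been preincubated 10 min with compound (1% DMSO) in Tris pH 8.0 buffer with DTT, EDTA, BSA.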

Experiment [2] deals with T1, BCDIN3D. As to the kind of experiment: BCDIN3D InCellPulse thermal stability assay in transfected A549 cells. In kind it is cell-based. Conditions: transiently transfected A549 cells, heat shock 58° C. 15 min. The essentials:
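Thermal stabilisation read-out: after a 15 min 58 °C heat shock, ePL-tagged BCDIN3D in transiently transfected A549 cells (1500/well) was quantified by enzyme-fragment complementation luminescence. Compounds were pre-incubated with cells 1 h at 37 °C, 0.6% DMSO final.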

In the case of `Cn1ncc2c(Nc3ccccc3)nc(NCC3(N)CCCC3)nc21` [Compound 3.21, 6-N-[(1-aminocyclopentyl)methyl]-1-methyl-4-N-phenylpyrazolo[3,4-d]pyrimidine-4,6-diamine], the results for the IC50 against BCDIN3D [1] and against BCDIN3D [2] were 1440 nM and 2000 nM, respectively.

With `Cn1ncc2c(Nc3ccc(C#N)cc3)nc(NCC3(N)CCCC3)nc21` [Compound 3.22, 4-[[6-[(1-aminocyclopentyl)methylamino]-1-methylpyrazolo[3,4-d]pyrimidin-4-yl]amino]benzonitrile], the half-inhibitory concentration (IC50) against BCDIN3D [1] worked out at 1800 nM; against BCDIN3D [2] it was 2260 nM.

As to `Cn1ncc2c(Nc3ccc(OC(F)(F)F)cc3)nc(NCC3(N)CCCC3)nc21` [Compound 3.23, 6-N-[(1-aminocyclopentyl)methyl]-1-methyl-4-N-[4-(trifluoromethoxy)phenyl]pyrazolo[3,4-d]pyrimidine-4,6-diamine], the IC50 against BCDIN3D [1] was determined as 115 nM; at BCDIN3D [2] it was 267 nM.

Regarding `[2H]C([2H])([2H])n1ncc2c(Nc3ccc(C(F)(F)F)cc3)nc(NCC3(N)CCC3)nc21` [Compound 3.24, N6-[(1-aminocyclobutyl)methyl]-1-(trideuteriomethyl)-N4-[4-(trifluoromethyl)phenyl]pyrazolo[3,4-d]pyrimidine-4,6-diamine], the IC50 was found to be 45 nM on BCDIN3D [1] and 481 nM against BCDIN3D [2].

With `Cc1ccc(CNc2nc(NCC(N)CF)nc3c2cnn3C)cc1Cl` (stereo not drawn) [Compound 3.25, N6-(2-Amino-3-fluoropropyl)-N4-[(3-chloro-4-methylphenyl)methyl]-1-methyl-1H-pyrazolo[3,4-d]pyrimidine-4,6-diamine], the 50% inhibitory concentration (IC50) at BCDIN3D [1] was 6170 nM; at BCDIN3D [2], 5500 nM.

As to `Cn1ncc2c(Nc3ccc(C(F)(F)F)cc3)nc(NCC(N)CF)nc21` (stereo not drawn) [Compound 3.26, 6-N-(2-amino-3-fluoropropyl)-1-methyl-4-N-[4-(trifluoromethyl)phenyl]pyrazolo[3,4-d]pyrimidine-4,6-diamine], the figures for the IC50 against BCDIN3D [1] and at BCDIN3D [2] were 3000 nM and 4030 nM, respectively.

Consider `COCC(N)CNc1nc(NCc2ccc(C)c(Cl)c2)c2cnn(C)c2n1` (stereo not drawn) [Compound 3.27, 6-N-(2-amino-3-methoxypropyl)-4-N-[(3-chloro-4-methylphenyl)methyl]-1-methylpyrazolo[3,4-d]pyrimidine-4,6-diamine], for which the values for the IC50 against BCDIN3D [1] and at BCDIN3D [2] were 4310 nM and 4790 nM, respectively.

As to `Cn1ncc2c(Nc3ccc(C(F)(F)F)cc3)nc(NCC3(N)COC3)nc21` [Compound 3.28, 6-N-[(3-Aminooxetan-3-yl)methyl]-1-methyl-4-N-[4-(trifluoromethyl)phenyl]pyrazolo[3,4-d]pyrimidine-4,6-diamine], the IC50 stood at 383 nM against BCDIN3D [1] and 4670 nM against BCDIN3D [2].

Consider `Cn1ncc2c(Nc3ccccc3)nc(NCC3(N)COC3)nc21` [Compound 3.29, 6-N-[(3-Aminooxetan-3-yl)methyl]-1-methyl-4-N-phenylpyrazolo[3,4-d]pyrimidine-4,6-diamine], for which the half-inhibitory concentration (IC50) on BCDIN3D [1] was 4920 nM; against BCDIN3D [2], 60000 nM.

With `Cc1ccc(CNc2nc(NC3CCCCC3N)nc3c2cnn3C)cc1Cl` (stereo not drawn) [Compound 3.30, N6-(2-aminocyclohexyl)-N4-[(3-chloro-4-methylphenyl)methyl]-1-methyl-1H-pyrazolo[3,4-d]pyrimidine-4,6-diamine], the concentration for half-maximal inhibition (IC50) against BCDIN3D [1] is 1140 nM; against BCDIN3D [2], 1410 nM.

`[2H]C([2H])([2H])n1ncc2c(NC(C)(C)C)nc(NCC(C)(N)c3ccccc3)nc21` (stereo not drawn) [Compound 4.01, N6-(2-Amino-2-phenyl-propyl)-N4-tert-butyl-1-(trideuteriomethyl)pyrazolo[3,4-d]pyrimidine-4,6-diamine]: the 50% inhibitory concentration (IC50) worked out at 325 nM against BCDIN3D [1] and 1940 nM against BCDIN3D [2].

For `CCn1ncc2c(NC(C)C)nc(NCC(N)c3ccccc3)nc21` (stereo not drawn) [Compound 4.02, 6-N-(2-Amino-2-phenylethyl)-1-ethyl-4-N-propan-2-ylpyrazolo[3,4-d]pyrimidine-4,6-diamine], the IC50 was 4280 nM against BCDIN3D [1] and 5670 nM on BCDIN3D [2].

In the case of `Cc1ccc(CNc2nc(NCC(N)c3ccccc3)nc3c2cnn3C)cc1Cl` (stereo not drawn) [Compound 4.03, 6-N-(2-amino-2-phenylethyl)-4-N-[(3-chloro-4-methylphenyl)methyl]-1-methylpyrazolo[3,4-d]pyrimidine-4,6-diamine], the IC50 came out at 62.5 nM against BCDIN3D [1] and 166 nM at BCDIN3D [2].

For the molecule `Cn1ncc2c(NCc3ccc(F)cc3F)nc(NCC(N)c3ccccc3)nc21` (stereo not drawn) [Compound 4.04, 6-N-(2-amino-2-phenylethyl)-4-N-[(2,4-difluorophenyl)methyl]-1-methylpyrazolo[3,4-d]pyrimidine-4,6-diamine], the IC50 against BCDIN3D [1] was 424 nM; at BCDIN3D [2] it was 820 nM.

Take `Cn1ncc2c(NCc3ccc(F)c(Cl)c3)nc(NCC(N)c3ccccc3)nc21` (stereo not drawn) [Compound 4.05, 6-N-(2-amino-2-phenylethyl)-4-N-[(3-chloro-4-fluorophenyl)methyl]-1-methylpyrazolo[3,4-d]pyrimidine-4,6-diamine]: the half-maximal inhibitory concentration (IC50) at BCDIN3D [1] is 109 nM; at BCDIN3D [2], 275 nM.

`Cn1ncc2c(NCc3cccc(Br)c3)nc(NCC(N)c3ccccc3)nc21` (stereo not drawn) [Compound 4.06, 6-N-(2-amino-2-phenylethyl)-4-N-[(3-bromophenyl)methyl]-1-methylpyrazolo[3,4-d]pyrimidine-4,6-diamine]: the figures for the concentration for half-maximal inhibition (IC50) on BCDIN3D [1] and at BCDIN3D [2] were 87.2 nM and 139 nM, respectively.

Consider `Cn1ncc2c(NCc3ccc(Br)cc3)nc(NCC(N)c3ccccc3)nc21` (stereo not drawn) [Compound 4.07, 6-N-(2-amino-2-phenylethyl)-4-N-[(4-bromophenyl)methyl]-1-methylpyrazolo[3,4-d]pyrimidine-4,6-diamine], for which the results for the 50% inhibitory concentration (IC50) against BCDIN3D [1] and against BCDIN3D [2] were 132 nM and 282 nM, respectively.

For `Cn1ncc2c(NCc3ccc(C(F)(F)F)nc3)nc(NCC(N)c3ccccc3)nc21` (stereo not drawn) [Compound 4.08, 6-N-(2-amino-2-phenylethyl)-1-methyl-4-N-[[6-(trifluoromethyl)pyridin-3-yl]methyl]pyrazolo[3,4-d]pyrimidine-4,6-diamine], the 50% inhibitory concentration (IC50) at BCDIN3D [1] turned out to be 1080 nM; on BCDIN3D [2] it was 2950 nM.

As to `COc1ccc(CNc2nc(NCC(N)c3ccccc3)nc3c2cnn3C)c(OC)c1` (stereo not drawn) [Compound 4.09, N6-(2-amino-2-phenyl-ethyl)-N4-[(2,4-dimethoxyphenyl)methyl]-1-methyl-pyrazolo[3,4-d]pyrimidine-4,6-diamine], the 50% inhibitory concentration (IC50) against BCDIN3D [1] stood at 178 nM; against BCDIN3D [2] it was 505 nM.

In the case of `Cn1ncc2c(Nc3ccc(F)cc3)nc(NCC(N)c3ccccc3)nc21` (stereo not drawn) [Compound 4.10, 6-N-(2-amino-2-phenylethyl)-4-N-(4-fluorophenyl)-1-methylpyrazolo[3,4-d]pyrimidine-4,6-diamine], the IC50 against BCDIN3D [1] was 71.7 nM; against BCDIN3D [2] it was 323 nM.

Consider `Cn1ncc2c(Nc3cnc(C(F)(F)F)nc3)nc(NCC(C)(N)c3ccccc3)nc21` (stereo not drawn) [Compound 4.11, N6-(2-amino-2-phenyl-propyl)-1-methyl-N4-[2-(trifluoromethyl)pyrimidin-5-yl]pyrazolo[3,4-d]pyrimidine-4,6-diamine], for which the concentration for half-maximal inhibition (IC50) came out at 168 nM against BCDIN3D [1] and 2160 nM against BCDIN3D [2].

Take `Cn1ncc2c(Nc3ccc(OC(F)(F)F)cc3)nc(NCC(C)(N)c3ccccc3)nc21` (stereo not drawn) [Compound 4.12, N6-(2-amino-2-phenyl-propyl)-1-methyl-N4-[4-(trifluoromethoxy)phenyl]pyrazolo[3,4-d]pyrimidine-4,6-diamine]: the IC50 on BCDIN3D [1] is 52.1 nM; against BCDIN3D [2] it was 186 nM.

Take `Cn1ncc2c(Nc3ccc(Cl)c(Cl)c3)nc(NCC(C)(N)c3ccccc3)nc21` (stereo not drawn) [Compound 4.13, N6-(2-amino-2-phenyl-propyl)-N4-(3,4-dichlorophenyl)-1-methyl-pyrazolo[3,4-d]pyrimidine-4,6-diamine]: the IC50 amounted to 86.6 nM at BCDIN3D [1] and 258 nM against BCDIN3D [2].

Regarding `Cn1ncc2c(Nc3ccc(OC(F)F)cc3)nc(NCC(N)c3ccccc3)nc21` (stereo not drawn) [Compound 4.14, 6-N-(2-amino-2-phenylethyl)-4-N-[4-(difluoromethoxy)phenyl]-1-methylpyrazolo[3,4-d]pyrimidine-4,6-diamine], the half-maximal inhibitory concentration (IC50) came out at 89.5 nM against BCDIN3D [1] and 206 nM at BCDIN3D [2].

As to `Cn1ncc2c(Nc3ccc(OC(F)F)cc3)nc(NCC(C)(N)c3ccccc3)nc21` (stereo not drawn) [Compound 4.15, 6-N-(2-amino-2-phenylpropyl)-4-N-[4-(difluoromethoxy)phenyl]-1-methylpyrazolo[3,4-d]pyrimidine-4,6-diamine], the IC50 worked out at 69.4 nM on BCDIN3D [1] and 295 nM against BCDIN3D [2].

Take `Cn1ncc2c(Nc3ccc(OC(F)F)cc3)nc(NC[C@H](N)c3ccccc3)nc21` [Compound 4.16, N6-[(2R)-2-amino-2-phenyl-ethyl]-N4-[4-(difluoromethoxy)phenyl]-1-methyl-pyrazolo[3,4-d]pyrimidine-4,6-diamine]: the IC50 against BCDIN3D [1] turned out to be 40.8 nM; against BCDIN3D [2], 46.3 nM.

Consider `Cn1ncc2c(Nc3ccc(C(F)(F)F)cc3)nc(NCC(N)c3ccccc3)nc21` (stereo not drawn) [Compound 4.17, 6-N-(2-amino-2-phenylethyl)-1-methyl-4-N-[4-(trifluoromethyl)phenyl]pyrazolo[3,4-d]pyrimidine-4,6-diamine], for which the half-inhibitory concentration (IC50) against BCDIN3D [1] is 50.1 nM; against BCDIN3D [2], 178 nM.
